The text below walks through data of US12465629B2, “Prevention and treatment of organ injuries” (Farsight Medical Technology (Shanghai) Co., Ltd., priority 2020, dated 2025).

The test system of data set [1] is LPS induced lung injury in C57BL/6 mice. Kind of data set: Acute lung injury model study (LPS induced) in mice. The class given is in vivo. On the procedure: Compound I was tested in an in vivo mouse model for acute lung injury.
LPS (lipopolysaccharide) was administered to induce lung injury in C57BL/6 mice. LPS elicits an acute inflammatory response in the lung, resulting in progressive damage, and necrosis of lung tissue including the bronchial wall, and alveoli.
LPS (0.3 mg/kg) was administered directly to the trachea of anaesthetized mice in study groups 2 to 6. […]
Non-invasive lung function tests including respiratory frequency, tidal volume, maximum inspiratory speeds and maximal expiratory speeds were determined on Day 2 and end of the study, 24 h after LPS was initially administered.
A significant impact was moreover observed with regards to the pathology of the lung tissue of the mice subjects. […] The histological examination comprised random selection of visual field areas which were blind scored for lung injury according to the following criteria: 1) alveolar congestion, 2) hemorrhage, 3) infiltration of inflammatory cells, and 4) thickness of alveolar wall according to a scale of 0 (minimal damage), 1, (mild damage), 2 (moderate damage), 3 (severe damage), and 4 (maximal damage). […]

For data set [2], the system named is LPS induced lung injury in SD rats. Briefly: Acute lung injury model study II (LPS induced) in rats. It is filed as in vivo. Conditions: 1 and 3 mg/kg iv (G4, G5) at 1 h, 7 h, 24 h after LPS.
Procedure: A study was conducted to assess the effect of combined administration of dexamethasone and Compound I in an acute lung injury model. LPS (lipopolysaccharide) was administered to induce lung injury in SD rats (SPF grade male, body weight 180-200 g).
Study group 1 (G1) served as sham control group (no induced acute lung injury) and Group 2 (G2) served as model group (acute lung injury, no treatment).
Dexamethasone, prepared as an aqueous solution, prepared by dissolving the appropriate amount in saline, was used as a positive control in group 3 (G3), and was also administered to group 6 (G6) and group 7 (G7), which also received Compound I. A lyophilized powder of Compound I, was dissolved in an aqueous reconstitution solution comprising Tween 80, acetic acid, sodium acetate, and further diluted with saline before application.
The animals were weighed. LPS (5 mg/kg) was then injected via the trachea of the rat after anesthesia and surgery to expose the trachea (all groups except for G1 where no LPS was injected). […]
Non-invasive lung function tests were determined at 24 hours and at 48 hours (end of the study). […]
Whole lung tissue samples were taken at end of study for histological examination. The histological examination comprised random selection of visual field areas which were blind scored for lung injury. […]
Data set [3] is described as follows: Comparative pharmacokinetic study, tissue distribution. Details: species or system SD rats. Conditions: rat, in vivo, iv, 3 mg/kg. The method, then: At the respective time points, blood samples and respective organ/tissues were collected and processed according to standard procedures The concentration of the respective drugs in the respective tissues were then measured using a validated LC-Ms/Ms method.

Take `C/C=C/C[C@@H](C)[C@@H](O)[C@H]1C(=O)N[C@@H](CC)C(=O)N(C)[C@H](OCCN(C)C)C(=O)N(C)[C@@H](CC(C)C)C(=O)N[C@@H](C(C)C)C(=O)N(C)[C@@H](CC(C)C)C(=O)N[C@@H](C)C(=O)N[C@H](C)C(=O)N(C)[C@@H](CC(C)C)C(=O)N(C)[C@@H](CC(C)C)C(=O)N(C)[C@@H](C(C)C)C(=O)N1C` [Compound I, [(R)-2′(2-dimethylaminoethoxy)-Sar]^3 cyclosporin A]: in data set [1] (ip 0.5 h and 6 h after LPS, 1, 5, 10 mg/kg, in particular 10 mg/kg, 24 h after LPS, FIG. 1), the “Non-invasive lung function tests (tidal volume, breath rate, peak inspiratory and expiratory flow)” value was “statistically relevant improvements in some of the lung function tests”. In data set [1] (ip 0.5 h and 6 h after LPS, all doses 1, 5, 10 mg/kg, vs model group G2, FIG. 2), the “Histological lung injury scoring (bronchial, arteriole and alveolar tissue)” value was “significant effect in terms of decreasing the severity of injuries to bronchial, arteriole and alveolar tissue”. In addition, the “Total bronchial and arteriole injury scoring” value in data set [2] (FIG. 5B) was “performed significantly better than the model (G2) and the positive group (G3)”. Moreover, the “Total alveolar injury scoring” value in data set [2] (vs model G2, FIG. 5A) is reported as “significant positive effect in terms of decreasing the severity of injuries to alveolar tissue”. For the same compound, in data set [3] (both sexes, Sprague-Dawley (SD)), the time to peak (Tmax) came to 30 min. The Tissue distribution result in data set [3] was “distribute to a greater degree to organ tissues, such as the kidney, and the lung”.

As usually defined, the Tmax is the time from dosing to the highest level.
